From ChEMBL document CHEMBL1155313, “Inhibitory effect of chalcones and their derivatives from Glycyrrhiza inflata on protein tyrosine phosphatase 1B” (Bioorg Med Chem Lett, 2009) come the findings set out here.

Some results are limits rather than exact numbers.

In the test the target is T1, Tyrosine-protein phosphatase non-receptor type 1 (Homo sapiens, UniProt P18031).
T1 sequence (P18031 whole entry): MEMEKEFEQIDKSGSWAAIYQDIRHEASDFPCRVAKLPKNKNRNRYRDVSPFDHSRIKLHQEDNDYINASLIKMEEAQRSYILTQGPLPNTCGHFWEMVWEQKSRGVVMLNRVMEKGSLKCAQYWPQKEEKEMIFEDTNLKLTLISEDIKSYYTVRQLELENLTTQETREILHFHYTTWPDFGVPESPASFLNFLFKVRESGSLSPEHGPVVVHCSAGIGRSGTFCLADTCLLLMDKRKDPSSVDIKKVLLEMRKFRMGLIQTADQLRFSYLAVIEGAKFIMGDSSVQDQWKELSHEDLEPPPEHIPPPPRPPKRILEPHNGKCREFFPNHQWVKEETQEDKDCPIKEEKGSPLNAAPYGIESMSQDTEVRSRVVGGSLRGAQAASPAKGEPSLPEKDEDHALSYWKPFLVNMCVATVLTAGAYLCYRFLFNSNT
Nature of the test: Inhibition of recombinant human PTP1B assessed as hydrolysis of p-nitrophenyl phosphate after 30 mins.

With `COc1c(/C=C/C(=O)c2ccc(O)cc2)ccc(O)c1CC=C(C)C`, the IC50 came to 30.9 µM. Regarding `C=CC(C)(C)c1cc(/C=C/C(=O)c2ccc(OC)cc2)c(OC)cc1O`, the IC50 is 11.7 µM.

As to `C=CC(C)(C)c1cc(/C=C/C(=O)c2ccc(OC)cc2)c(OC)cc1OC(C)=O`, the IC50 was determined as 19.4 µM. Consider `C=CC(C)(C)c1cc(/C=C/C(=O)c2ccc(O)cc2)c(OC)cc1OC(C)=O`, for which the IC50 stood at 17.3 µM.

With `C=CC(C)(C)c1cc(/C=C/C(=O)c2ccc(OC(C)=O)cc2)c(OC)cc1OC`, the half-inhibitory concentration (IC50) was determined as 29.2 µM. In the case of `C=CC(C)(C)c1cc(/C=C/C(=O)c2ccc(O)cc2)c(OC)cc1OC` it was 18.3 µM; in that of `C=CC(C)(C)c1cc(/C=C/C(=O)c2ccc(OC(C)=O)cc2)c(OC)cc1O`, 19.2 µM. As to `C=C(C)C(C)c1cc(/C=C/C(=O)c2ccc(O)cc2)c(OC)cc1O` (centres undefined), the IC50 came to 20.7 µM. Regarding `C=CC(C)(C)c1cc(/C=C/C(=O)c2ccc(OC)cc2)c(OC)cc1OC`, the IC50 was 19.8 µM. In the case of `C=CC(C)(C)c1cc(/C=C/C(=O)c2ccc(OC(C)=O)cc2)c(OC)cc1OC(C)=O`, the IC50 is more than 50 µM. As for `COc1cc(O)ccc1/C=C/C(=O)c1ccc(O)cc1` [ECHINATIN], the figure is more than 50 µM; as for `O=C(/C=C/c1ccc(O)cc1)c1ccc(O)cc1O` [ISOLIQUIRITIGENIN], more than 50 µM; as for `C=CC(C)(C)c1cc(/C=C/C(=O)c2ccc(O)cc2)c(OC)cc1O` [LICOAGROCHACONE A], 19.1 µM.

Regarding `O=C1C[C@@H](c2ccc(O)cc2)Oc2cc(O)ccc21` [LIQUIRTIGENIN], the half-maximal inhibitory concentration (IC50) was more than 50 µM.

One may read the IC50 as the concentration needed to halve the response being measured.
